The record followed here is PubChem BioAssay AID179 (DTP/NCI, 2004).

This assay has as its system CEM cells HIV-1 protection, formazan growth assay. Kind of assay: NCI AIDS Antiviral Assay. The note with it: for IC50: measured here: growth of uninfected CEM cells. An outline of the steps: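 Category rules: moderately active means at least 50% protection on retest, and confirmed active means 100% protection reproducibly. The underlying data came from a formazan growth assay in HIV-1-infected CEM cells.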

Each structure is given as a SMILES string. Active and inactive are the calls of the source.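 Rule for the calls: active = compounds giving half or more protection of infected cells from virus-caused growth loss, again on retest; inactive = the rest.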 Where a SMILES comes first, the peptide text is derived from it. Where only a bound is given, the exact number is not on record here.

A word on the EC50: it is the concentration needed to bring the measured effect to its halfway point. What is called IC50 is the midpoint of a concentration-inhibition curve. A lower IC50 goes with higher potency.

On to `COC(=O)[C@]1(C)CCC[C@@]2(C)C1CC[C@@]13C=C(C(C)C)[C@@H](CC1=O)CC23` (stereo partly drawn), for which the EC50 was above 200 µM and the half-inhibitory concentration (IC50) worked out at 36.3 µM.
With `COc1cc2ccnc3c2c(c1O)-c1ccccc1C3=O`, the outcome was inactive.
Regarding `C[N+](C)([O-])C12CC3CC(CC(C3)C1)C2`, the EC50 is above 200 µM and the IC50 is above 200 µM.
In the case of `CCOCC(/C=N/N=C(N)N)=N\N=C(N)N`, the EC50 is above 759 µM and the half-maximal inhibitory concentration (IC50) is above 759 µM.
As for `O=c1[nH]c(N/N=C\C(O)C(O)C(O)C(O)CO)nc2ccccc12` (stereo not drawn), the EC50 is above 200 µM and the half-inhibitory concentration (IC50) is above 200 µM.
With `COC(=O)C1=C(CS(=O)c2ccccc2[N+](=O)[O-])ON(C)C1c1ccccc1` (stereo not drawn), the result was inactive.
Turning to `COc1cc2c(cc1OC)CN1CCc3ccccc3CC1C2` (stereo not drawn), the EC50 is above 200 µM and the IC50 stood at 14.8 µM.
Take `OCc1ccc2c(c1)CC1(C2)Cc2cc3c(cc2C1)CCC3`: the EC50 was above 200 µM and the half-maximal inhibitory concentration (IC50) was 0.977 µM.
`Cc1ccc(C)c(N=C2NC(=O)C(CC(=O)Nc3ccc(Cl)cc3Cl)S2)c1` (stereo not drawn): the EC50 is above 44.7 µM and the IC50 is 19.5 µM.
In the case of `COc1cc2c(cc1OC)C(=O)Cc1ccc(OC)c(OC)c1CN(C)CC2`, the EC50 was above 67.6 µM and the concentration for half-maximal inhibition (IC50) is above 67.6 µM.
Take `CCOC(=O)C(/C=N\C(=S)Nc1ccc(Cl)c(Cl)c1)=C(/O)c1ccccc1`: the EC50 was above 200 µM and the IC50 was determined as 24 µM.
For `CC1=C(C)C(N2CCOCC2)CS(=O)(=O)O1` (stereo not drawn), in that order: above 200 µM and above 200 µM.
In the case of `CCOC(=O)/C(F)=C/c1cccc(C)c1`, the EC50 was above 126 µM and the half-maximal inhibitory concentration (IC50) was above 126 µM.
With `CCOP(=O)(CC(C)P(=O)(OCC)OCC)OCC.C[CH2][Sn]([Cl])([Cl])[CH2]C` (stereo not drawn), the EC50 was above 447 µM and the 50% inhibitory concentration (IC50) is 1.7 µM.
As to `C[C@]12CCC(OS(=O)(=O)O)CC1=CCC1C2CC[C@@]2(C)C1CC[C@@H]2C(=O)O` (stereo partly drawn), the EC50 is above 427 µM and the half-inhibitory concentration (IC50) is 417 µM.
Turning to `O=C(/C=C(\O)c1ccc(Cl)cc1)C(=O)NN=C(c1ccccc1)c1ccccc1`, the EC50 is above 200 µM and the IC50 came to 16.6 µM.
For `O=C(O)c1ccc(Nc2nc3ccc(C(F)(F)F)cc3nc2C(=O)O)cc1`, the EC50 is above 200 µM and the IC50 was above 200 µM.
In the case of `N[C@H](C(=O)O)[C@H](Cl)CC(=O)O`, the EC50 was above 245 µM and the half-inhibitory concentration (IC50) was above 245 µM.
As to `CC1C2Cc3ccc(O)cc3C1(C)CCN2CCC(=O)c1ccccc1` (stereo not drawn), the EC50 was above 200 µM and the IC50 worked out at 27.5 µM.
`CC(C)(C1=NC(C(C)(C)C)CO1)C1=N[C@@H](C(C)(C)C)CO1` (stereo partly drawn): the EC50 is above 251 µM and the half-inhibitory concentration (IC50) is above 251 µM.
In the case of `CN1CCCOC(c2ccc(Cl)cc2)O1` (stereo not drawn), the EC50 is above 200 µM and the 50% inhibitory concentration (IC50) is above 200 µM.
On to `O=C(N/N=C/c1cc(S(=O)(=O)O)c2cccnc2c1O)C(=O)N/N=C/c1cc(S(=O)(=O)O)c2cccnc2c1O`, for which the EC50 was above 200 µM and the 50% inhibitory concentration (IC50) was determined as 41.7 µM.
Take `CN1CCCC(C#N)(c2ccccc2)CC1` (stereo not drawn): the result was inactive.
With `CSc1nc(N)c2c(n1)N(C)C=NS2(=O)=O`, the EC50 was above 28.2 µM and the concentration for half-maximal inhibition (IC50) was above 28.2 µM.
As for `CCCCn1c(-c2ccc(Cl)cc2)cs/c1=N\Nc1nc2c(c(=O)n(C)c(=O)n2C)n1C`, the EC50 is above 33.1 µM and the IC50 turned out to be 11 µM.
On to `CCOC(=O)C1(C#N)C(C#N)(C#N)C1(C#N)C#N`, for which the EC50 was above 200 µM and the 50% inhibitory concentration (IC50) is above 200 µM.
Take `Cc1cc(=O)c2c(o1)C(=O)c1occc1C2=O`: the outcome was inactive.
As to `COc1ccc2c(c1)OC[C@]1(C)c3cc(O)c(OCc4ccccc4)cc3O[C@H]21`, the result was inactive.
`CC(=O)OCc1cncn1S(=O)(=O)c1ccc(C)cc1`: the EC50 was above 200 µM and the IC50 came to 22.9 µM.
As for `CCOC(=O)N1CCN(c2c(N)nc(C)[nH]c2=O)CC1`, the EC50 is above 200 µM and the IC50 is above 200 µM.
On to `Nc1ncnc2c1ncn2C1CCC(CO)OC1` (stereo not drawn), for which the EC50 is above 200 µM and the half-maximal inhibitory concentration (IC50) was above 200 µM.
`COc1cc(OC)c2nc(C)c3c(c2c1)SCC3`: the EC50 is above 200 µM and the IC50 is above 200 µM.
With `CC1(C)Oc2ccc3ccccc3c2[C@@H](OC(=O)C23CCC(C)(C(=O)O2)C3(C)C)[C@H]1OC(=O)C12CCC(C)(C(=O)O1)C2(C)C` (stereo partly drawn), the EC50 is above 200 µM and the IC50 amounted to 3.55 µM.
For the compound `COC1=C(CC(C)=O)C(=O)c2c(O)c(CO)cc(O)c2C1=O`, the result was inactive.
In the case of `O=c1c(-c2ccccc2)c(S)sc(S)c1-c1ccccc1`, the EC50 was above 200 µM and the IC50 was above 200 µM.
Turning to `Cc1cc2c(-c3ccccc3)c3cc(C)c(N)cc3nc2cc1N`, the EC50 is above 200 µM and the IC50 is 2.75 µM.
As for `COC(=O)[C@H](Cc1ccccc1)NC(=O)N(CCNCCNC(=O)OC(C)(C)C)c1ccccc1`, the EC50 was above 200 µM and the half-maximal inhibitory concentration (IC50) was above 100 µM.
Regarding `S=c1nc(N2CCCCC2)ss1`, the outcome was inactive.
`O=S(=O)(O)C(Br)(Br)Br`: the EC50 was above 200 µM and the IC50 was above 200 µM.
Take `COc1cccc(N2C(=O)C3c4[nH]c5ccccc5c4C4CCCC4C3C2=O)c1` (stereo not drawn): the EC50 was above 200 µM and the IC50 is above 200 µM.
Turning to `CCC[CH2][Sn]([CH2]CCC)([O]C(=O)c1cc(OC)c(OC)cc1OC)[O]C(=O)c1cc(OC)c(OC)cc1OC`, the EC50 was above 39.8 µM and the IC50 stood at 0.776 µM.
For `O=C1C(Cl)=C(N2CCN(C3=C(Cl)C(=O)c4ccccc4C3=O)CC2)C(=O)c2ccccc21`, in that order: above 7.76 µM and 1.32 µM.
Regarding `Cc1nc(-c2cccnc2)sc1C(=O)/C=C/c1ccc(Cl)cc1Cl`, the EC50 is above 19.1 µM and the concentration for half-maximal inhibition (IC50) was above 19.1 µM.
Turning to `CCC(C)C(NC(=O)C(NC(=O)C(CC(N)=O)NC(=O)CN)C(C)O)C(=O)NC(C(=O)NC(C)C(=O)NC(C(=O)NC(CCC(=O)O)C(=O)NC(CC(C)C)C(=O)NC(CC(=O)O)C(=O)NC(C(=O)NC(Cc1ccc(O)cc1)C(=O)N1CCCC1C(=O)O)C(C)O)C(C)C)C(C)C` (stereo not drawn) (H-GNTIVAVELDTYP-OH; configuration not given here), the EC50 is 30.9 µM and the half-inhibitory concentration (IC50) is 50.1 µM.
Regarding `O=C1OC(=O)C2=C1C(c1cccs1)C=C(c1cccnc1)N2c1ccncc1` (stereo not drawn), the EC50 was above 200 µM and the IC50 is 9.77 µM.
For `O=c1/c(=N\Nc2ccccc2)c2cccc3ccc4cccc1c4c32`, in that order: above 100 µM and above 100 µM.
As for `O=C1[C@@H]2C(c3ccccc3[N+](=O)[O-])=NO[C@@H]2C(=O)N1c1ccc(Cc2ccc(N3C(=O)[C@H]4C(c5ccccc5[N+](=O)[O-])=NO[C@H]4C3=O)cc2)cc1`, the EC50 is above 20 µM and the half-inhibitory concentration (IC50) is above 20 µM.
For `COc1ccc(C2C(C#N)=C(O)NC(O)=C2C#N)cc1OC`, the EC50 is above 120 µM and the IC50 is above 120 µM.
As to `Nc1ccc(-c2nc3ccc(Cc4ccc5nc(-c6ccc(N)cc6)oc5c4)cc3o2)cc1`, the EC50 is 107 µM and the IC50 was above 200 µM.
For `Nc1nc2ccccc2nc1N`, the EC50 was above 200 µM and the concentration for half-maximal inhibition (IC50) is above 200 µM.
`O=C(CCc1nnc2s/c(=C\c3ccc(Cl)cc3Cl)c(=O)n12)Nc1cc(Cl)c(Cl)cc1Cl`: the EC50 is above 13.2 µM and the IC50 is above 13.2 µM.
Regarding `CC1=C(C(=O)Nc2cccc(Cl)c2)C(c2ccc([N+](=O)[O-])cc2)C(C(=O)Nc2cccc(Cl)c2)=C(C)N1`, the EC50 was above 9.77 µM and the 50% inhibitory concentration (IC50) amounted to 7.94 µM.
Regarding `Cc1c2ccc(Cl)cc2nc2ccc(OCCCCCCNC(=O)[C@@H](N)CCCN=C(N)N)cc12`, the EC50 was above 100 µM and the IC50 stood at 15.5 µM.
For `COC(=O)c1ccc(CO/N=C(\c2ccccc2)c2ccncc2)cc1`, in that order: above 200 µM and 66.1 µM.
As to `Cc1ccc(NC(=O)CCc2nnc(N)o2)cc1`, the EC50 was above 380 µM and the 50% inhibitory concentration (IC50) was above 380 µM.
Consider `O=S(=O)(c1ccccc1)c1ccccc1`, for which the concentration for a half-maximal effect (EC50) was above 204 µM and the IC50 was above 204 µM.
`N#CC(C(=N/NC(N)=S)/C(=N\NC(N)=S)C(C#N)c1ccccc1)c1ccccc1` (stereo not drawn): the EC50 was above 97.7 µM and the IC50 was 47.9 µM.
Consider `CC1CN=C(NCc2ccccc2)S1` (stereo not drawn), for which the EC50 was above 200 µM and the IC50 was above 200 µM.
With `CN1CC=C(c2c(N)nc(N)[nH]c2=O)CC1`, the EC50 was above 200 µM and the 50% inhibitory concentration (IC50) was above 200 µM.
With `NNC(=O)CC(=O)Nc1ccccc1Cl`, the EC50 was above 200 µM and the IC50 is above 200 µM.
Consider `Cc1cc(N=Nc2ccc(C(=O)Nc3ccc4cc(S(=O)(=O)O)ccc4c3)cc2)c(N)c(N=Nc2ccc(N=Nc3ccc(O)c(C(=O)O)c3)cc2)c1N`, for which the EC50 is 14.8 µM and the IC50 is above 100 µM.
For the compound `COc1c(OCc2ccccc2)c(OCc2ccccc2)cc(COS(=O)(=O)O)c1-c1c(COS(=O)(=O)O)cc(OCc2ccccc2)c(OCc2ccccc2)c1OC`, the EC50 is above 1.58 µM and the IC50 was above 1.58 µM.
With `Cn1c(=O)c2nc(N3CCCCC3)cnc2n(C)c1=O`, the EC50 is above 200 µM and the IC50 was above 200 µM.
`CC(=O)/C(=C/c1ccc(Cl)cc1)C(=O)c1ccccc1`: the EC50 is above 66.1 µM and the IC50 turned out to be 11.7 µM.
In the case of `N#Cc1c(N2CCCC2)ncn(-c2ccccc2)c1=O`, the EC50 was above 200 µM and the IC50 is above 200 µM.
Turning to `CC(C)(C)NC(=O)CCC(=O)O`, the EC50 was above 200 µM and the half-maximal inhibitory concentration (IC50) was 110 µM.
For `Cc1cccc(N2C(c3ccccc3)c3ccc(C)cc3NS2=O)c1` (stereo not drawn), in that order: above 257 µM and 151 µM.
With `COC(=O)[C@H](Cc1ccccc1)NC(=O)N(CCC#N)CCN(C(=O)N[C@@H](Cc1ccccc1)C(=O)OC)c1ccccc1`, the EC50 was above 200 µM and the IC50 was 29.5 µM.
Turning to `CN(C)c1ccc(/C=C(\NC(=O)c2ccccc2)C2=NC(CC(=O)O)C(=O)O2)cc1` (stereo not drawn), the EC50 was above 50.1 µM and the IC50 was above 50.1 µM.
Take `CN(O)C(=S)c1ccccc1`: the EC50 was above 14.8 µM and the IC50 came to 0.112 µM.
